Assay results taken from patent US11026963B2, “Senolytic compositions and uses thereof” (Rubedo Life Sciences, Inc., priority 2018, dated 2021).

What follows are molecules tested on Normal human fibroblasts (IMR90) (assay: Compound toxicity towards normal proliferative, senescent or quiescent fibroblasts (XTT cell viability assay)). Conditions: IC50 against normal, proliferating cells divided by IC50 versus senescent (doxorubicin-induced) cells, three days treatment.
Type: cell-based
Procedure: Normal human fibroblasts (IMR90) and patient-derived β-galactosidase (GLB1) or α-fucosidase (FUCA1) deficient cells were used to determine change in cell viability after exposure to compound. Cells were cultured with DMEM and 10% heat inactivated FBS under a controlled atmosphere of 5% carbon dioxide and 5% oxygen, […] and confirmed by the absence of senescence associated β-galactosidase (SA-β-Gal) staining and the capacity to re-enter the cell cycle. Senescence was induced by treatment with doxorubicin and confirmed by SA-β-Gal positive staining and the lack of DNA replication. Cells were treated with compound for three days. Cell viability was determined by mitochondrial dehydrogenase activity (XTT assay. Cayman Chemical) at ten concentrations of the tested compound. To generate dose-response curves, data was fitted to a four-parameter Hill function and the IC50 was determined at Y=0.5 viability. The senolytic index (S.I.) for each compound was determined by dividing the IC50 against normal, proliferating cells by the IC50 versus senescent cells. Senolytic index data is shown in Table 1 with compounds having S.I.<1 (−), S.I>1 (+), S.I.>5 (++) and S.I>10 (+++).
With `CC(C)c1cc(C(=O)N2Cc3ccc(CN4CCN(C)CC4)cc3C2)c(O)cc1O[C@@H]1O[C@H](CO)[C@H](O)[C@H](O)[C@H]1O` (single isomer, unassigned) [(46)] the “Senolytic Index (S.I.)” value was “− (S.I.<1 (−))”.
`CCNC(=O)c1noc(-c2cc(C(C)C)c(O[C@@H]3O[C@H](CO)[C@H](O)[C@H](O)[C@H]3O)cc2O)c1-c1ccc(CN2CCOCC2)cc1` (single isomer, unassigned) [(48)] was tested, and the “Senolytic Index (S.I.)” value was “+ (S.I>1 (+))”.
For `CCNC(=O)c1noc(-c2cc(C(C)C)c(O)cc2O[C@@H]2O[C@H](CO)[C@H](O)[C@H](O)[C@H]2O)c1-c1ccc(CN2CCOCC2)cc1` (single isomer, unassigned) [(49)], the “Senolytic Index (S.I.)” value was “+ (S.I>1 (+))”.
In the case of `CC(C)c1cc(-c2n[nH]c(=O)n2-c2ccc3c(ccn3C)c2)c(O)cc1O[C@@H]1O[C@H](CO)[C@H](O)[C@H](O)[C@H]1O` (single isomer, unassigned) [(127)], the “Senolytic Index (S.I.)” value is reported as “+ (S.I>1 (+))”.
With `CC(C)c1cc(-c2n[nH]c(=O)n2-c2ccc3c(ccn3C)c2)c(O[C@@H]2O[C@H](CO)[C@H](O)[C@H](O)[C@H]2O)cc1O` (single isomer, unassigned) [(128)] the “Senolytic Index (S.I.)” value was “− (S.I.<1 (−))”.
In the case of `Cc1[nH]c2ccccc2c1CCNCc1ccc(/C=C/C(=O)NO[C@@H]2O[C@H](CO)[C@H](O)[C@H](O)[C@H]2O)cc1` [(26), (E)-3-(4-(((2-(2-Methyl-1H-indol-3-yl)ethyl)amino)methyl)phenyl)-N-(((2S,3R,4S,5R,6R)-3,4,5-trihydroxy-6-(hydroxymethyl)tetrahydro-2H-pyran-2-yl)oxy)acrylamide], the “Senolytic Index (S.I.)” value is reported as “++ (S.I.>5 (++))”.
`Cc1[nH]c2ccccc2c1CCNCc1ccc(/C=C/C(=O)NO[C@@H]2O[C@@H](C)[C@@H](O)[C@@H](O)[C@@H]2O)cc1` [(35), (E)-3-(4-(((2-(2-Methyl-1H-indol-3-yl)ethyl)amino)methyl)phenyl)-N-(((2S,3S,4R,5S,6S)-3,4,5-trihydroxy-6-methyltetrahydro-2H-pyran-2-yl)oxy)acrylamide] was tested, and the “Senolytic Index (S.I.)” value was “+ (S.I>1 (+))”.
For `CC(C)c1cc(C(=O)N2Cc3ccc(CN4CCN(C)CC4)cc3C2)c(O[C@@H]2O[C@H](CO)[C@H](O)[C@H](O)[C@H]2O)cc1O` [(47)], the “Senolytic Index (S.I.)” value was “− (S.I.<1 (−))”.
With `Cn1cc(CNCC2CCN(c3ncc(C(=O)NO[C@@H]4O[C@H](CO)[C@H](O)[C@H](O)[C@H]4O)cn3)CC2)c2ccccc21` [(112), 2-(4-((((1-methyl-1H-indol-3-yl)methyl)amino)methyl)piperidin-1-yl)-N-(((2S,3R,4S,5R,6R)-3,4,5-trihydroxy-6-(hydroxymethyl)tetrahydro-2H-pyran-2-yl)oxy)pyrimidine-5-carboxamide] the “Senolytic Index (S.I.)” value was “+ (S.I>1 (+))”.
In the case of `CC(=O)OC[C@H]1O[C@@H](ONC(=O)/C=C/c2ccc(CNCCc3c(C)[nH]c4ccccc34)cc2)[C@H](OC(C)=O)[C@@H](OC(C)=O)[C@H]1OC(C)=O` [(113), (2R,3S,4S,5R,6S)-2-(Acetoxymethyl)-6-(((E)-3-(4-(((2-(2-methyl-1H-indol-3yl)ethyl)amino)methyl)phenyl)acrylamido)oxy)tetrahydro-2H-pyran-3,4,5-triyl Triacetate], the “Senolytic Index (S.I.)” value is reported as “+++ (S.I>10 (+++))”.
`CC(=O)OC[C@H]1O[C@@H](ONC(=O)c2cnc(N3CCC(CNCc4cn(C)c5ccccc45)CC3)nc2)[C@H](OC(C)=O)[C@@H](OC(C)=O)[C@H]1OC(C)=O` [(114), (2R,3S,4S,5R,6S)-2-(Acetoxymethyl)-6-((2-(4-((((1-methyl-1H-indol-3-yl)methyl)amino)methyl)piperidin-1-yl)pyrimidine-5-carboxamido)oxy)tetrahydro-2H-pyran-3,4,5-triyl Triacetate] was tested, and the “Senolytic Index (S.I.)” value was “+ (S.I>1 (+))”.
`C[C@@H]1O[C@@H](ONC(=O)c2cnc(N3CCC(CNCc4cn(C)c5ccccc45)CC3)nc2)[C@@H](O)[C@H](O)[C@@H]1O` [(120), 2-(4-((((l-Methyl-1H-indol-3-yl)methyl)amino)methyl)piperidin-1-yl)-N-(((2S,3S,4R,5S,6S)-3,4,5-trihydroxy-6-methyltetrahydro-2H-pyran-2-yl)oxy)pyrimidine-5-carboxamide] was tested, and the “Senolytic Index (S.I.)” value was “+ (S.I>1 (+))”.
With `CCC(=O)O[C@H]1[C@H](OC(=O)CC)[C@H](ONC(=O)/C=C/c2ccc(CNCCc3c(C)[nH]c4ccccc34)cc2)O[C@@H](C)[C@H]1OC(=O)CC` [(121), (2S,3R,4R,5S,6S)-2-Methyl-6-(((E)-3-(4-(((2-(2-methyl-1H-indol-3-yl)ethyl)amino)methyl)phenyl)acrylamido)oxy)tetrahydro-2H-pyran-3,4,5-triyl Tripropionate] the “Senolytic Index (S.I.)” value was “+++ (S.I>10 (+++))”.
In the case of `Cc1[nH]c2ccccc2c1CCNCc1ccc(/C=C/C(=O)NO[C@@H]2O[C@@H](C)[C@@H](OC(=O)C(C)C)[C@@H](OC(=O)C(C)C)[C@@H]2OC(=O)C(C)C)cc1` [(122), (2S,3R,4R,5S,6S)-2-Methyl-6-(((E)-3-(4-(((2-(2-methyl-1H-indol-3-yl)ethyl)amino)methyl)phenyl)acrylamido)oxy)tetrahydro-2H-pyran-3,4,5-triyl tris(2-methylpropanoate)], the “Senolytic Index (S.I.)” value is reported as “+ (S.I>1 (+))”.
For `COc1ccc(-c2nc(N3CCOCC3)c3sc(CN(C)c4ncc(C(=O)NO[C@@H]5O[C@H](COC(C)=O)[C@H](OC(C)=O)[C@H](OC(C)=O)[C@H]5OC(C)=O)cn4)cc3n2)cn1` [(123), (2R,3S,4S,5R,6S)-2-(Acetoxymethyl)-6-((2-(((2-(6-methoxypyridin-3-yl)-4-morpholinothieno[3,2-d]pyrimidin-6-yl)methyl)(methyl)amino)pyrimidine-5-carboxamido)oxy)tetrahydro-2H-pyran-3,4,5-triyl Triacetate], the “Senolytic Index (S.I.)” value was “+ (S.I>1 (+))”.
`COc1ccc(-c2nc(N3CCOCC3)c3sc(CN(C)c4ncc(C(=O)NO[C@@H]5O[C@H](CO)[C@H](O)[C@H](O)[C@H]5O)cn4)cc3n2)cn1` [(124), 2-(((2-(6-Methoxypyridin-3-yl)-4-morpholinothieno[3,2-d]pyrimidin-6-yl)methyl)(methyl)amino)-N-(((2S,3R,4S,5R,6R)-3,4,5-trihydroxy-6-(hydroxymethyl)tetrahydro-2H-pyran-2-yl)oxy)pyrimidine-5-carboxamide] was tested, and the “Senolytic Index (S.I.)” value was “− (S.I.<1 (−))”.
In the case of `COc1ccc(-c2nc(N3CCOCC3)c3sc(CN(C)c4ncc(C(=O)NO[C@@H]5O[C@@H](C)[C@@H](OC(C)=O)[C@@H](OC(C)=O)[C@@H]5OC(C)=O)cn4)cc3n2)cn1` [(125), (2S,3S,4R,5R,6S)-2-((2-(((2-(6-Methoxypyridin-3-yl)-4-morpholinothieno[3,2-d]pyrimidin-6-yl)methyl)(methyl)amino)pyrimidine-5-carboxamido)oxy)-6-methyltetrahydro-2H-pyran-3,4,5-triyl Triacetate], the “Senolytic Index (S.I.)” value is reported as “++ (S.I.>5 (++))”.
For `COc1ccc(-c2nc(N3CCOCC3)c3sc(CN(C)c4ncc(C(=O)NO[C@@H]5O[C@@H](C)[C@@H](O)[C@@H](O)[C@@H]5O)cn4)cc3n2)cn1` [(126), 2-(((2-(6-methoxypyridin-3-yl)-4-morpholinothieno[3,2-d]pyrimidin-6-yl)methyl)(methyl)amino)-N-(((2S,3S,4R,5S,6S)-3,4,5-trihydroxy-6-methyltetrahydro-2H-pyran-2-yl)oxy)pyrimidine-5-carboxamide], the “Senolytic Index (S.I.)” value was “− (S.I.<1 (−))”.
With `CC(=O)O[C@H]1[C@H](OC(C)=O)[C@H](ONC(=O)c2cnc(N3CCC(CNCc4cn(C)c5ccccc45)CC3)nc2)O[C@@H](C)[C@H]1OC(C)=O` [Compound (115), (2S,3R,4R,5S,6S)-2-Methyl-6-((2-(4-((((1-methyl-1H-indol-3-yl)methyl)amino)methyl)piperidin-1-yl)pyrimidine-5-carboxamido)oxy)tetrahydro-2H-pyran-3,4,5-triyl Triacetate] the “Senolytic Index (S.I.)” value was “+++ (S.I>10 (+++))”.

The molecules below were run on Mouse embryonic fibroblast cells (MEFs) (assay: Viability of proliferating or senescent mouse embryonic fibroblasts (DAPI/PI staining)). Conditions: doxorubicin-induced senescent MEFs, 4 days, FIG. 1B.
Type: cell-based
Procedure: Mouse embryonic fibroblast cells were incubated with 300 nM doxorubicin for 24 hrs to induce senescence. Cells were washed and after incubation in media for 7 days, senescence was confirmed by staining for SA-β-Gal (Itahana et al., Methods Mol. Biol. 371 (2007) 21-31) and lack of incorporation of 5-ethynyl-2′-deoxyuridine (EdU) (see Yu et al., J. Immunol. Methods 350 (2009) 29-35).
Proliferating or senescent MEFs were treated with increasing concentrations of either FURGal (101) or 5-fluorouridine (FUR) (102) for 4 days. Cells were washed and stained with 4′,6-diamidino-2-phenylindole (DAPI) and propidium iodide (PI) and the fraction of viable cells was assessed from the ratio of PI-positive nuclei over PI-negative nuclei.
`O=c1[nH]c(=O)n([C@@H]2O[C@H](CO)[C@@H](O)[C@H]2O)cc1F` [(102), 5-fluorouridine, reference compound] was tested, and the “toxicity towards senescent MEFs” value was “equitoxic”.

Same assay, conditions: proliferating MEFs, 4 days, increasing concentrations (as high as 4 mM), FIG. 1A
`O=c1[nH]c(=O)n([C@@H]2O[C@H](CO)[C@@H](O)[C@H]2O)cc1F` [(102), 5-fluorouridine, reference compound] was tested, and the “cell viability / toxicity towards proliferating cells” value was “dramatically reduces cell viability”.

These molecules were tested on senescent C57BL/6 mouse hepatocytes (assay: Effect of compound (113) on doxorubicin-induced senescent hepatocytes after in vivo administration). Conditions: doxorubicin 20 mg/kg i.p.; 2×20 mg/kg i.p. 4 and 6 days later; livers after additional 2 days; FIG. 4C.
Procedure: Two groups of C57BL/6 mice (N=9/group) were injected intraperitoneally with doxorubicin (20 mg/kg) to induce hepatocellular senescence. 4 and 6 days later groups were injected i.p. with PBS or compound (113) (aka RBO-013) (2×20 mg/kg). A third group of animals served as controls. After an additional 2 days livers were removed and sectioned (30 μm) before staining for SA-β-Gal as previously described (FIGS. 4A and 4B). […] This senolytic effect was also corroborated by using quantitative PCR to detect mRNA levels of Cdkn2a (p16^INK4a) and IL-6 (N.B. Cdkn2a expression was exclusively detected in animals that received doxorubicin). Expression levels were reported relative to Actb as the reference gene.
In the case of `CC(=O)OC[C@H]1O[C@@H](ONC(=O)/C=C/c2ccc(CNCCc3c(C)[nH]c4ccccc34)cc2)[C@H](OC(C)=O)[C@@H](OC(C)=O)[C@H]1OC(C)=O` [(113), (2R,3S,4S,5R,6S)-2-(Acetoxymethyl)-6-(((E)-3-(4-(((2-(2-methyl-1H-indol-3yl)ethyl)amino)methyl)phenyl)acrylamido)oxy)tetrahydro-2H-pyran-3,4,5-triyl Triacetate], the “senescent hepatocytes (as visualized by SA-β-Gal staining)” value is reported as “reduction”.

Same assay, conditions: quantitative PCR, relative to Actb; doxorubicin 20 mg/kg, 2×20 mg/kg i.p.; FIG. 4D
For `CC(=O)OC[C@H]1O[C@@H](ONC(=O)/C=C/c2ccc(CNCCc3c(C)[nH]c4ccccc34)cc2)[C@H](OC(C)=O)[C@@H](OC(C)=O)[C@H]1OC(C)=O` [(113), (2R,3S,4S,5R,6S)-2-(Acetoxymethyl)-6-(((E)-3-(4-(((2-(2-methyl-1H-indol-3yl)ethyl)amino)methyl)phenyl)acrylamido)oxy)tetrahydro-2H-pyran-3,4,5-triyl Triacetate], the “Cdkn2a (p16INK4a) gene expression in liver” value was “significant reduction”.

Same assay, conditions: quantitative PCR, relative to Actb; doxorubicin 20 mg/kg, 2×20 mg/kg i.p.; FIG. 4E
In the case of `CC(=O)OC[C@H]1O[C@@H](ONC(=O)/C=C/c2ccc(CNCCc3c(C)[nH]c4ccccc34)cc2)[C@H](OC(C)=O)[C@@H](OC(C)=O)[C@H]1OC(C)=O` [(113), (2R,3S,4S,5R,6S)-2-(Acetoxymethyl)-6-(((E)-3-(4-(((2-(2-methyl-1H-indol-3yl)ethyl)amino)methyl)phenyl)acrylamido)oxy)tetrahydro-2H-pyran-3,4,5-triyl Triacetate], the “IL-6 gene expression in liver” value is reported as “significant reduction”.
